The source of these data is paper PMC3734253, “A Novel Color Change Mechanism for Breast Cancer Biomarker Detection: Naphthoquinones as Specific Ligands of Human Arylamine N-Acetyltransferase 1” (PLoS ONE, 2013).

The target in data set [1] is T1, hNAT1 (human arylamine N-acetyltransferase 1) (Homo sapiens, UniProt P18440).
T1 construct: made in house
T1 sequence (P18440 1-290): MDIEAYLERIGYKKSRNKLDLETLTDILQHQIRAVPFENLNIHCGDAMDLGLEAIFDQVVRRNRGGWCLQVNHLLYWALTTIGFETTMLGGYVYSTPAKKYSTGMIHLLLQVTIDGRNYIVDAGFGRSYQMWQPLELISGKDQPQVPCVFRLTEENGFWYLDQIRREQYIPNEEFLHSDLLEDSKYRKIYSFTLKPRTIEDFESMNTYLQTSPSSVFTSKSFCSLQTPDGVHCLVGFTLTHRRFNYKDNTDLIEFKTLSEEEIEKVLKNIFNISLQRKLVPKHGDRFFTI
Kind of data set: AcCoA hydrolysis assay, inhibition of hNAT1. It counts as biochemical. The note with it: for IC50: pABA 500 μM, AcCoA 400 μM, pH 8.0, 5% DMSO. The protocol:
(§1) NAT activity was determined as previously described,[23]; a full procedure is outlined in the (File S1).
(§2) NAT activity was determined by AcCoA hydrolysis assays. The NAT isoform (100 ng) was pre-incubated with para-amino benzoic acid (500 μM) in the assay buffer (5% DMSO/95% 20mM aq Tris.HCl, pH 8.0) for 5 min. at 37 °C in a 96-well plate (Corning). Pre-warmed AcCoA (400 μM, 37 °C) in assay buffer was added to start the reaction (final volume of 100 μL), which was allowed to proceed at 37 °C. Simultaneous quenching and color development was achieved by addition of 25 μL DTNB solution (5 mM DTNB in 100 mM aq Tris.HCl, 6.4 M guanidine.HCl, pH 7.5). The absorbance was immediately read at 405 nm using a plate reader (Tecan Sunrise). The rate of reaction was determined by reference to a standard curve and controls with buffer alone were carried out. For detection of inhibition, the inhibitors tested were dissolved in DMSO and the final percentage of DMSO in the assay was 5% (v/v). […] A dose-response function was used as a model of regression for the data and the curves were estimated by the method of the least squares analysis.

Data set [2] addresses T2, mNat2 (Mus musculus, UniProt P50295).
T2 construct: hexa-histidine tag (cleaved yes); made in house; host or cells: E. coli Rosetta(DE3)pLysS
T2 sequence (P50295 1-290): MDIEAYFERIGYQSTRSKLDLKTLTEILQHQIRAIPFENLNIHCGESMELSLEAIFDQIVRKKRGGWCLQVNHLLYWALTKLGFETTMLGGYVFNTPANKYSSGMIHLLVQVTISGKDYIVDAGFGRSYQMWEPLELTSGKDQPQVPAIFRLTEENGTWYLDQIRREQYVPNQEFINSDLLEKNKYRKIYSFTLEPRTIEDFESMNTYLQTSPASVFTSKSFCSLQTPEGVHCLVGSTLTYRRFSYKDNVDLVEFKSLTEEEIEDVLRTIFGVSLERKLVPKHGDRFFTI
Nature of the data set: AcCoA hydrolysis assay, inhibition of mNat2 (wild type). It counts as biochemical. The note with it: for IC50: mNat2_WT, pABA 500 μM, AcCoA 400 μM, pH 8.0, 5% DMSO.

Data set [3] has as its target T3, mNat1 (Mus musculus, UniProt P50294).
T3 construct: hexa-histidine tag (cleaved yes); made in house; host or cells: E. coli Rosetta(DE3)pLysS
T3 sequence (P50294 1-290): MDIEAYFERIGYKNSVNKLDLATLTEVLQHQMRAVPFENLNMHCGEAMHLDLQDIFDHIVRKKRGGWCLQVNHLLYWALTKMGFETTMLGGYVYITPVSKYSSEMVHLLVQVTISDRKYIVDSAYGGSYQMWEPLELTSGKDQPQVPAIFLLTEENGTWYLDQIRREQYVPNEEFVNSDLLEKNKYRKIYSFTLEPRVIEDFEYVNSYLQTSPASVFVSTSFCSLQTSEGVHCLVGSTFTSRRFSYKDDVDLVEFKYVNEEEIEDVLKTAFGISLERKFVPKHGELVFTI
Kind of data set: Visible spectrum of compound in presence of mNat1. Format: binding. The note with it: with mNat1. The protocol:
(§3) Visible spectra of each compound were recorded with a U-2001 spectrophotometer (Hitachi) using 1 mL plastic cells of 1 cm path-length (FisherBrand) or 50 μL UVettes® (Eppendorf). Concentrations of inhibitors and protein used are given in the appropriate figure legends. All spectra were blank-corrected.

The target of data set [4] is T4, hNAT2 (Homo sapiens, UniProt P11245).
T4 sequence (P11245 1-290): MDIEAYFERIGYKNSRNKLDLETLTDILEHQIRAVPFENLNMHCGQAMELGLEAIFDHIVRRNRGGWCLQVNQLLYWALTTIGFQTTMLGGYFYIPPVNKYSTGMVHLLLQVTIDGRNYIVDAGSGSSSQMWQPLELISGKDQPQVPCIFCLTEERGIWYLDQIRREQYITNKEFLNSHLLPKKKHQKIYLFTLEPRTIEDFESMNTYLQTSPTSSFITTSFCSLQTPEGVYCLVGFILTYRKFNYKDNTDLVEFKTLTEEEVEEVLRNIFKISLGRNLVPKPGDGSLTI
Kind of data set: Visible spectrum of compound in presence of hNAT2. Format: binding. The conditions noted are these: with hNAT2. The protocol:
as §3

For data set [5], the target named is T4, hNAT2. Nature of the data set: AcCoA hydrolysis assay, inhibition of hNAT2. Format: biochemical. The conditions noted are these: for enzyme activity retained: hNAT2, inhibitor concentration 30 µM. On the procedure: as §1, §2
Data set [6] is described as follows: Acid-base (pH) titration by visible spectra. Format: physicochemical. The note with it: panel of buffered solutions at diverse pHs with 5% DMSO; 5% DMSO/95% H2O. The protocol:
5 μL of 1 in DMSO (final concentration 0.1 mM) was added to 95 μL of a panel of solutions buffered at diverse pHs in a flat-bottomed 96-well plate (Corning). Visible spectra of the samples were recorded from 800 to 350 nm on the FLUOstar Omega plate reader (BMG Labtech), then the λmax were determined for all spectra and plotted against pH. A sigmoidal titration curve was fitted using GraphPad®.

The target of data set [7] is T3, mNat1. Kind of data set: AcCoA hydrolysis assay, inhibition of mNat1. Format: biochemical. The conditions noted are these: enzyme mNat1, read-out: % Inhibition at 30 μM of 1. The protocol:
as §1, §2

The target of data set [8] is T2, mNat2. Nature of the data set: Visible spectrum of compound in presence of mNat2. It counts as binding. The note with it: with mNat2, 20 mM Tris.HCl pH 8. The protocol: as §3
(§4) 15 μM compound 4 was prepared using different conditions: 20 mM aq Tris.HCl, pH 8, 5% DMSO (v/v); 80 mM aq NaOH, pH 13.75, 5% DMSO (v/v); with hNAT1 (30 μM) in 20 mM aq Tris.HCl, pH 8, 5% DMSO (v/v); with mNat2 (30 μM) 20 mM aq Tris.HCl, pH 8, 5% DMSO (v/v). Wavelength scans from 800 to 350 nm were recorded against the respective blanks containing no compound 4.
(§5) 15 μM compound 5 was prepared using different conditions: 20 mM aq Tris.HCl, pH 8, 5% DMSO (v/v); 80 mM aq NaOH, pH 13.75, 5% DMSO (v/v); with hNAT1 (30 μM) in 20 mM aq Tris.HCl, pH 8, 5% DMSO (v/v); with mNat2 (30 μM) 20 mM aq Tris.HCl, pH 8, 5% DMSO (v/v). Wavelength scans from 800 to 350 nm were recorded against the respective blanks containing no compound 5.

The target of another data set is T5, hNAT1 (Homo sapiens, UniProt P18440).
T5 construct: made in house
T5 sequence (P18440 1-290): T1 sequence (P18440 1-290)
Kind of data set: Visible spectrum of compound in presence of hNAT1. Format: binding. The note with it: with hNAT1, 20 mM Tris.HCl pH 8. On the procedure: as §3, §4, §5

Data set [9] can be described thus: Solubility under NMR conditions for active protein. Format: physicochemical. The conditions noted are these: 5% DMSO-d6/95% D2O, for 15N-NMR.

As for `Cc1cc(C)cc(NC2=C(NS(=O)(=O)c3ccccc3)C(=O)c3ccccc3C2=O)c1` [compound 1, N-(3-(3’’,5’’-Dimethylphenylamino)-1,4-dioxo-1,4-dihydronaphthalen-2-yl)benzenesulfonamide], the inhibition at 30 µM in [1] (30 μM, enzyme hNAT1) turned out to be 93.3 ± 0.9%; on mNat2 [2] (30 μM, enzyme mNat2, read-out: % Inhibition at 30 μM of 1) it was 92.4 ± 4.4%; at hNAT2 [5] (30 μM, enzyme hNAT2, read-out: % Inhibition at 30 μM of 1) it was 10.6 ± 2%; on mNat1 [7], 37.6 ± 1.6%. Also, the 50% inhibitory concentration (IC50) in [1] was found to be 5.3 µM; at mNat2 [2], 1.9 µM. Also, the Ki at mNat2 [2] (competitive towards pABA (25-250 µM), AcCoA 400 µM, 9 ng pure recombinant mNat2, Dixon plot, read-out: Ki (app.)) is 0.42 µM. Besides, on mNat1 [3], the “λmax in presence of mNat1” value is given as 498 nm. Further, the “λmax in presence of hNAT2” value on hNAT2 [4] is 498 nm. Also, the pKa in [6] is ~9.2. At mNat2 [8], the “λmax in presence of mNat2” value turned out to be 625 nm. For the same compound, the “λmax in presence of hNAT1” value at hNAT1 worked out at 585 nm.

Consider `Cc1cc(C)cc(NC2=C([15NH]S(=O)(=O)c3ccccc3)C(=O)c3ccccc3C2=O)c1` [compound 2, N-(3-(3’’,5’’-Dimethylphenylamino)-1,4-dioxo-1,4-dihydronaphthalen-2-yl)^15N-benzenesulfonamide], for which, in data set [9], the solubility result is reported as “insufficiently soluble”.

With `Cc1cc(C)cc(NC2=C(N(C)S(=O)(=O)c3ccccc3)C(=O)c3ccccc3C2=O)c1` [compound 3, N-(3-(3’’,5’’-Dimethylphenylamino)-1,4-dioxo-1,4-dihydronaphthalen-2-yl)-N-methylbenzenesulfonamide], the enzyme activity retained entry at hNAT2 [5] is “more than 90%”. Further, the “λmax in presence of mNat2” value at mNat2 [8] is reported as 490 nm. In addition, on hNAT1, the “λmax in presence of hNAT1” value was 476 nm.

In turn, `COS(=O)(=NC1=C(Nc2cc(C)cc(C)c2)C(=O)c2ccccc2C1=O)c1ccccc1` (stereo not shown) [compound 4, Methyl-N-3-(3’’,5’’-dimethylphenylamino)-1,4-dioxo-1,4-dihydronaphthalen-2-ylbenzenesulfonimidate] yielded a melting point of 71 to 74 °C. The same compound registered a half-maximal inhibitory concentration (IC50) in [1] of 3.6 µM. In addition, the midpoint of inhibition against mNat2 [2], the IC50, lay at 14.6 µM. Besides, the enzyme activity retained entry at hNAT2 [5] is reported as “more than 90%”. In addition, the “λmax in presence of mNat2” value at mNat2 [8] is reported as 548 nm.

`Cc1cc(C)cc(NC2=C(OS(=O)(=O)c3ccccc3)C(=O)c3ccccc3C2=O)c1` [compound 5, 3-((3’’,5’’-Dimethylphenyl)amino)-1,4-dioxo-1,4-dihydronaphthalen-2-ylbenzenesulfonate]: the half-inhibitory concentration (IC50) in data set [1] is 93 µM; against mNat2 [2], > 150 µM. Moreover, the “λmax in presence of mNat2” value on mNat2 [8] came out at 492 nm. At hNAT1, the “λmax in presence of hNAT1” value turned out to be 492 nm.

A word on the inhibition: it is the drop in the measured response relative to a control, in per cent. In general, IC50 refers to the concentration at which inhibition is half-maximal. As a reminder, the melting point is the temperature, or range, at which the solid turns liquid.
